Test results reported in the NIST ThermoML archive (doi:10.1021/je2011055).
± gives the expanded uncertainty stated by the source.

Details: Liquid, Closed cell (Static) method

Compound: F/C=C/C(F)(F)F [trans-1,3,3,3-tetrafluoropropene]
- vapor or sublimation pressure (258.15 K): 119.3 ± 1.1 kPa
- vapor or sublimation pressure (268.15 K): 178.4 ± 1.1 kPa
- vapor or sublimation pressure (278.15 K): 258.1 ± 1.3 kPa
- vapor or sublimation pressure (288.15 K): 362.8 ± 1.5 kPa

Compound: CC(C)C [2-methylpropane]
- vapor or sublimation pressure (258.15 K): 88.9 ± 1 kPa
- vapor or sublimation pressure (268.15 K): 130.8 ± 1.1 kPa
- vapor or sublimation pressure (278.15 K): 186.7 ± 1.1 kPa
- vapor or sublimation pressure (288.15 K): 258.7 ± 1.3 kPa
